Assay results published in patent US20260274829A1, “NEW E3 UBIQUITIN LIGASE LIGAND, PROTEIN DEGRADATION AGENT AND USE THEREOF” (GLUETACS THERAPEUTICS (SHANGHAI) CO., LTD., priority 2023, published 2026).

Legend:
Type in all cases: cell-based
[1] = biological target: T1, GSPT1 (Homo sapiens, UniProt P15170+Q96SW2); assay: Western blot degradation of GSPT1 in hPBMC
T1 construct: endogenous in cells; host or cells: hPBMC
Experimental: (§1) Conventional Western blot assay was performed to evaluate the effects of the compounds of the present disclosure on the expression of target proteins in cells.
(§2) • (1) Cell Seeding and Protein Harvesting: The selected cells were processed according to the cell seeding procedure and protein harvesting procedure in Table III-2.
(§3) • (2) To the collected supernatant, 5×SDS sample loading buffer was added, followed by denaturation at 95° C. for 5 minutes. The denatured samples were then separated by SDS-PAGE electrophoresis on a polyacrylamide gel. Proteins were transferred to a nitrocellulose membrane ([…] NC membrane), blocked with blocking buffer at room temperature for 1 hour, and subjected to antibody incubation and development procedures according to the antibody manufacturer's instructions (Cell Signaling Technology).
(§4) Half-Maximal Degradation Concentration value (the drug concentration required for degrading proteins by 50%, abbreviated as DC50) reads method: comparing the grayscale values of Western blot bands from drug-treated samples with those from blank DMSO-treated controls, and identifying the drug concentration range at which the grayscale value is half that of the DMSO-treated control bands.
(§5) DC50 values can be calculated using ImageJ software to measure grayscale values of Western blot bands from drug-treated samples. The concentration-response curve is fitted to estimate the drug concentration corresponding to half the grayscale value.
(§6) Target protein remaining (0%) refers to the percentage of target protein remaining in hPBMC cells after treatment with protein degrader compounds.
(§7) Calculation method for target protein remaining (0%): Use ImageJ software to measure grayscale values of Western blot bands from drug (protein degrader)-treated samples. The grayscale value of drug-treated bands is divided by that of internal control protein bands, and the resulting quotient is normalized to obtain the relative percentage of remaining target protein after protein degrader treatment.

[2] = biological target: T2, IKZF1 (Homo sapiens, UniProt Q13422+Q96SW2); assay: Western blot degradation of IKZF1 in hPBMC
T2 construct: endogenous in cells; host or cells: hPBMC
Experimental: as §1, §2, §3, §4, §5, §6, §7

[3] = biological target: T3, IKZF3 (Homo sapiens, UniProt Q96SW2+Q9UKT9); assay: Western blot degradation of IKZF3 in hPBMC
T3 construct: endogenous in cells; host or cells: hPBMC
T3 sequence (Q9UKT9 whole entry): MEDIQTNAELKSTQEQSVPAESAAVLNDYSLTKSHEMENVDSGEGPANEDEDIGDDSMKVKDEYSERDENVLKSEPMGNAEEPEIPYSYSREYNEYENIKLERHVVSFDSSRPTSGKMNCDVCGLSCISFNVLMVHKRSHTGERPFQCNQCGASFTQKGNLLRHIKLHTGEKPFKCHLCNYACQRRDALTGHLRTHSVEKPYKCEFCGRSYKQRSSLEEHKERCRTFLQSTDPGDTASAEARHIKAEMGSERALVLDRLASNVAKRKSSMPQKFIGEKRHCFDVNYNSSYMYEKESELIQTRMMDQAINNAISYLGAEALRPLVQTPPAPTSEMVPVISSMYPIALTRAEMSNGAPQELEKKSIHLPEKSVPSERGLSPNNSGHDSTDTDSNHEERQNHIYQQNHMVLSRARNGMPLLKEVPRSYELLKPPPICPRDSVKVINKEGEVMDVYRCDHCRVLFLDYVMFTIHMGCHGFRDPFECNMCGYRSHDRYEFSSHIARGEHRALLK
T3 sequence (Q96SW2 whole entry): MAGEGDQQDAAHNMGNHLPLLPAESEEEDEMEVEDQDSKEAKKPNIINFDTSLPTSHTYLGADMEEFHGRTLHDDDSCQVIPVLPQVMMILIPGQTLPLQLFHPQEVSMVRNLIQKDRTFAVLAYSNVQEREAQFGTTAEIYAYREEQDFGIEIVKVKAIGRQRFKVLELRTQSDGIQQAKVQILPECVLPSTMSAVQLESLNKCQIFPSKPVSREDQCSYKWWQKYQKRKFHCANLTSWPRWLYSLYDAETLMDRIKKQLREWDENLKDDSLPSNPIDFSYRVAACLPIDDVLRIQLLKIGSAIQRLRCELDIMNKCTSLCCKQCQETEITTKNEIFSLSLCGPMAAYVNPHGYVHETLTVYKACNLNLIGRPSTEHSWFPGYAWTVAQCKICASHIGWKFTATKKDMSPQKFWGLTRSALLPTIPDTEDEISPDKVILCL
T3 sequence (Q16531 whole entry partner): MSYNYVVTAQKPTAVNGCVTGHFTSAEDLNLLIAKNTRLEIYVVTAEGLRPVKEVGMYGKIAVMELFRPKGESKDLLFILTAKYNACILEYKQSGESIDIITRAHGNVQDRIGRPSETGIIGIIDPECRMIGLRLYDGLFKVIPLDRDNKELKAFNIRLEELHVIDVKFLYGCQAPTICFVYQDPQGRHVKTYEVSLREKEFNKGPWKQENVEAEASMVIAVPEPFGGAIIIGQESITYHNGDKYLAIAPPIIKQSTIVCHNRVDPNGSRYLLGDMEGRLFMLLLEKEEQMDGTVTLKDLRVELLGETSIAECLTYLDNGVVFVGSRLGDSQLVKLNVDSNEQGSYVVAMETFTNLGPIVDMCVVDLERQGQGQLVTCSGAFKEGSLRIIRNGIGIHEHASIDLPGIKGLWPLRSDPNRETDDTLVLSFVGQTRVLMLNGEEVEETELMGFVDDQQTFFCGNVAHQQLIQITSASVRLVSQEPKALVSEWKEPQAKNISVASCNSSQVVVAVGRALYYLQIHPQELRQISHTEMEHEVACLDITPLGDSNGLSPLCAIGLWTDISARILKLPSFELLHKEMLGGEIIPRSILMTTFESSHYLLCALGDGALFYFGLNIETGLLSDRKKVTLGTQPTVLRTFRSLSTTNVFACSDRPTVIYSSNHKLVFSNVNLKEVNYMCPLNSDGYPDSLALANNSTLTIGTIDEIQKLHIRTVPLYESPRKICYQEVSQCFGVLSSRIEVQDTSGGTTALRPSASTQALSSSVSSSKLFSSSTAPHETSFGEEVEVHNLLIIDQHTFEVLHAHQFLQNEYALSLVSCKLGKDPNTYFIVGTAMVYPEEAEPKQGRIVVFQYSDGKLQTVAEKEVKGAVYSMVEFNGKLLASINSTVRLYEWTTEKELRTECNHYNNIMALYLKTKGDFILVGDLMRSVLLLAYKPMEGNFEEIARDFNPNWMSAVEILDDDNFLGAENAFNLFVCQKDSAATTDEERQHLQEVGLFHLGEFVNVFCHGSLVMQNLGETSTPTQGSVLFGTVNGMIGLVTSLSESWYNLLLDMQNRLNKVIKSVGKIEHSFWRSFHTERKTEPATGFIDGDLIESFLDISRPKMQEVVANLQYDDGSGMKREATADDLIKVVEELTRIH
Experimental: as §1, §2, §3, §4, §5, §6, §7

[4] = biological target: T4, CK1a (Homo sapiens, UniProt P48729+Q96SW2); assay: Western blot degradation of CK1a in hPBMC
T4 construct: endogenous in cells; host or cells: hPBMC
T4 sequence (P48729 whole entry): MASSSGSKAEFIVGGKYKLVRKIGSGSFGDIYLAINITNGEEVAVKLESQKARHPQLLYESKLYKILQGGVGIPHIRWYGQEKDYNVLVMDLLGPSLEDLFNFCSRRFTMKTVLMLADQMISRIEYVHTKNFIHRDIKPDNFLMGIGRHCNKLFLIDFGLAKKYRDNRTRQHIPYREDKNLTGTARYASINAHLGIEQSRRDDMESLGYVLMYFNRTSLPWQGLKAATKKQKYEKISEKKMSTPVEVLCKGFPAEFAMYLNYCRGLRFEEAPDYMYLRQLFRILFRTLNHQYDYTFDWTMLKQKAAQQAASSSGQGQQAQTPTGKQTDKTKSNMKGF
T4 sequence (Q96SW2 whole entry): as the sequence (Q96SW2 whole entry) above
T4 sequence (Q16531 whole entry partner): as the sequence (Q16531 whole entry partner) above
Experimental: as §1, §2, §3, §4, §5, §6, §7

[5] = biological target: T5, IKZF2 (Homo sapiens, UniProt Q96SW2+Q9UKS7); assay: Western blot degradation of IKZF2 in hPBMC
T5 construct: endogenous in cells; host or cells: hPBMC
T5 sequence (Q9UKS7 whole entry): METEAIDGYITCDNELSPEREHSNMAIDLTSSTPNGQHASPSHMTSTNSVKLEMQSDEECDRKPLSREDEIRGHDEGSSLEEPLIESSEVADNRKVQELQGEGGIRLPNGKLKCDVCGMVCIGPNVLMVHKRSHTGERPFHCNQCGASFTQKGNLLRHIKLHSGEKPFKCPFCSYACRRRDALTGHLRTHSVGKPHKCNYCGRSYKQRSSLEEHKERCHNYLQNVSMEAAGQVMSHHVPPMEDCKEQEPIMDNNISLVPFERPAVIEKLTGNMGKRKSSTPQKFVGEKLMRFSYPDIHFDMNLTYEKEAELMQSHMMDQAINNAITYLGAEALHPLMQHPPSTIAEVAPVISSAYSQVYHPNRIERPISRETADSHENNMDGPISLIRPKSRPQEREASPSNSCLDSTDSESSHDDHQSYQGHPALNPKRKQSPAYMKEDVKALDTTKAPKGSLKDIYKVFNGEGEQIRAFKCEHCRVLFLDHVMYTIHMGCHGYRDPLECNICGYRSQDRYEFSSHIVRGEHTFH
T5 sequence (Q96SW2 whole entry): as the sequence (Q96SW2 whole entry) above
T5 sequence (Q16531 whole entry partner): as the sequence (Q16531 whole entry partner) above
Experimental: as §1, §2, §3, §4, §5, §6, §7

[6] = biological target: T6, WEE1 (Homo sapiens, UniProt P30291+Q96SW2); assay: Western blot degradation of WEE1 in hPBMC
T6 construct: endogenous in cells; host or cells: hPBMC
T6 sequence (P30291 whole entry): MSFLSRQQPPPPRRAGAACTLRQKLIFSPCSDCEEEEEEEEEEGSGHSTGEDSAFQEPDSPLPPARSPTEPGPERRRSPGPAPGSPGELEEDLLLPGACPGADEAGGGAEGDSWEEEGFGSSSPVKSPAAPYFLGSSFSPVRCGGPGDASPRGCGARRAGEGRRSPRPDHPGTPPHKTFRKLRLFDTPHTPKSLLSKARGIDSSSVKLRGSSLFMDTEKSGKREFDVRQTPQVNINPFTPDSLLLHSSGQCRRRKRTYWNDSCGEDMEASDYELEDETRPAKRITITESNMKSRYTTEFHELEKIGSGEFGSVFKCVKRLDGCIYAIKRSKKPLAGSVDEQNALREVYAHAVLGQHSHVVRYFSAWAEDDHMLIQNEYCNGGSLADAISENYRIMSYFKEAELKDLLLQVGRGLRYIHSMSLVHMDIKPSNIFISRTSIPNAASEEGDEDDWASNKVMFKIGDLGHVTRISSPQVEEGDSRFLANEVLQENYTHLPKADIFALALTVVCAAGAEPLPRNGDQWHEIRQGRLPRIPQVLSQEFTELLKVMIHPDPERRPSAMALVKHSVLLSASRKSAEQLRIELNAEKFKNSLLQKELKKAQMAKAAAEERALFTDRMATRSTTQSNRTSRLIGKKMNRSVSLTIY
T6 sequence (Q96SW2 whole entry): as the sequence (Q96SW2 whole entry) above
T6 sequence (Q16531 whole entry partner): as the sequence (Q16531 whole entry partner) above
Experimental: as §1, §2, §3, §4, §5, §6, §7

T1 sequence (P15170 whole entry): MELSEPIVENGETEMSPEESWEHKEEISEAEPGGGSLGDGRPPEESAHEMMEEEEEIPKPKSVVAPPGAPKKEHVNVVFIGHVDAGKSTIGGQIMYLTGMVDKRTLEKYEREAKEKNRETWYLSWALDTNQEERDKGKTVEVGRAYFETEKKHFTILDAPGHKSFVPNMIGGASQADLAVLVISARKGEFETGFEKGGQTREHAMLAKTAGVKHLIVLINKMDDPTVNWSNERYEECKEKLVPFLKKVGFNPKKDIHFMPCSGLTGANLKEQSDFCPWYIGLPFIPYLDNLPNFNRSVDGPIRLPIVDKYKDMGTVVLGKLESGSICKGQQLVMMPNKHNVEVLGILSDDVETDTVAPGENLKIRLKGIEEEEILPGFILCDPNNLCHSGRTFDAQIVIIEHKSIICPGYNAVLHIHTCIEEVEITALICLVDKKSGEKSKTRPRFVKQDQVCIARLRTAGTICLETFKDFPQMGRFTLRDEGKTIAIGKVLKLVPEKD
T1 sequence (Q96SW2 whole entry): as the sequence (Q96SW2 whole entry) above
T1 sequence (Q16531 whole entry partner): as the sequence (Q16531 whole entry partner) above

Compound | Degradation of substrate protein GSPT1 (substrate protein remaining %) [1] | Degradation of substrate protein IKZF1 (substrate protein remaining %) [2] | Degradation of substrate protein IKZF3 (substrate protein remaining %) [3] | Degradation of substrate protein CK1a (substrate protein remaining %) [4] | Degradation of substrate protein IKZF2 (substrate protein remaining %) [5] | Degradation of substrate protein WEE1 (substrate protein remaining %) [6]
O=C1CCC(c2cc(CO)c(F)cn2)C(=O)N1 (stereo not drawn) [GT-07444, 3-(5-fluoro-4-(hydroxymethyl)pyridin-2-yl)piperidine-2,6-dione] | B (B is defined as substrate protein remaining % > 80%) | B (B is defined as substrate protein remaining % > 80%) | A (A is defined as 0% ≤ substrate protein remaining % ≤ 80%) | B (B is defined as substrate protein remaining % > 80%) | A (A is defined as 0% ≤ substrate protein remaining % ≤ 80%) | B (B is defined as substrate protein remaining % > 80%)
CC(C)(C)[Si](C)(C)OCc1ccc(NC2CCC(=O)NC2=O)cn1 (stereo not drawn) [GT-07445, 3-((6-(((tert-butyldimethylsilyl)oxy)methyl)pyridin-3-yl)amino)piperidine-2,6-dione] | A (A is defined as 0% ≤ substrate protein remaining % ≤ 80%) | A (A is defined as 0% ≤ substrate protein remaining % ≤ 80%) | B (B is defined as substrate protein remaining % > 80%) | A (A is defined as 0% ≤ substrate protein remaining % ≤ 80%) | B (B is defined as substrate protein remaining % > 80%) | A (A is defined as 0% ≤ substrate protein remaining % ≤ 80%)
O=C1CCC(Nc2ccc(CO)nc2)C(=O)N1 (stereo not drawn) [GT-07446, 3-((6-(hydroxymethyl)pyridin-3-yl)amino)piperidine-2,6-dione] | A (A is defined as 0% ≤ substrate protein remaining % ≤ 80%) | A (A is defined as 0% ≤ substrate protein remaining % ≤ 80%) | A (A is defined as 0% ≤ substrate protein remaining % ≤ 80%) | A (A is defined as 0% ≤ substrate protein remaining % ≤ 80%) | A (A is defined as 0% ≤ substrate protein remaining % ≤ 80%) | A (A is defined as 0% ≤ substrate protein remaining % ≤ 80%)
O=Cc1cccnc1NC1CCC(=O)NC1=O (stereo not drawn) [GT-07447, 2-((2,6-dioxopiperidin-3-yl)amino)nicotinaldehyde] | A (A is defined as 0% ≤ substrate protein remaining % ≤ 80%) | A (A is defined as 0% ≤ substrate protein remaining % ≤ 80%) | A (A is defined as 0% ≤ substrate protein remaining % ≤ 80%) | A (A is defined as 0% ≤ substrate protein remaining % ≤ 80%) | A (A is defined as 0% ≤ substrate protein remaining % ≤ 80%) | A (A is defined as 0% ≤ substrate protein remaining % ≤ 80%)
